Source: ChEMBL document CHEMBL1201862, “PubChem BioAssay data set” (2004)
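How tested: cells in 96-well plates exposed to compound for 48 hours at five concentrations. GI50 marks 50% less growth.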 Active and inactive are the calls of the source. Cut-off read from the data, not from the text of the source: active = GI50 up to about 1.1 µM and inactive = higher.

How the values were obtained:
Assay in all cases: NCI tumour cell line growth inhibition, 48 h
786-0 = tested on: 786-0
CCRF-CEM = tested on: CCRF-CEM
HCT-116 = tested on: HCT-116
HCT-15 = tested on: HCT-15
HL-60 = tested on: HL-60
K562 = tested on: K562
KM12 = tested on: KM12
NCI-H226 = tested on: NCI-H226
OVCAR-4 = tested on: OVCAR-4
SF-268 = tested on: SF-268
SK-MEL-5 = tested on: SK-MEL-5
SNB-19 = tested on: SNB-19
U-251 = tested on: U-251
UO-31 = tested on: UO-31
CAKI-1 = tested on: CAKI-1
COLO 205 = tested on: COLO 205
Hs-578T = tested on: Hs-578T
MDA-MB-231 = tested on: MDA-MB-231

| SMILES | GI50 (786-0) | GI50 (CCRF-CEM) | GI50 (HCT-116) | GI50 (HCT-15) [µM] | GI50 (HL-60) | GI50 (K562) | GI50 (KM12) | GI50 (NCI-H226) | GI50 (OVCAR-4) | GI50 (SF-268) | GI50 (SK-MEL-5) | GI50 (SNB-19) | GI50 (U-251) | GI50 (UO-31) | GI50 (CAKI-1) | GI50 (COLO 205) | GI50 (Hs-578T) | GI50 (MDA-MB-231) |
| --- | --- | --- | --- | --- | --- | --- | --- | --- | --- | --- | --- | --- | --- | --- | --- | --- | --- | --- |
| CC(Oc1ccc(OCC2CCCCC2)cc1)C(=O)NCc1ccco1 (configuration not stated) | 34.6 µM (inactive) | 41 µM (inactive) | 26.4 µM (inactive) | 48.1 | 31.5 µM (inactive) | 42.3 µM (inactive) | 37.1 µM (inactive) | 28.8 µM (inactive) | 56.5 µM (inactive) | 98.9 µM (inactive) | 15.7 µM (inactive) | 74.3 µM (inactive) | 36.6 µM (inactive) | 28.3 µM (inactive) | – | – | – | – |
| CCO/C([O-])=C(\C(=O)c1ccccc1)[n+]1c(C)sc2ccccc21 | > 100 µM (inactive) | > 100 µM (inactive) | > 100 µM (inactive) | 21.9 | 53.2 µM (inactive) | 81.3 µM (inactive) | > 100 µM (inactive) | > 100 µM (inactive) | 96.6 µM (inactive) | > 100 µM (inactive) | 16.7 µM (inactive) | > 100 µM (inactive) | > 100 µM (inactive) | 50.6 µM (inactive) | > 100 µM (inactive) | 83.6 µM (inactive) | – | – |
| CC(=O)OC1C/C(C)=C/[C@H](O)CC(C)/C=C/[C@@]2(C)CCC(C(C)(C)O)C12 (some centres not stated) | > 100 µM (inactive) | > 100 µM (inactive) | > 100 µM (inactive) | > 100 | > 100 µM (inactive) | > 100 µM (inactive) | > 100 µM (inactive) | > 100 µM (inactive) | > 100 µM (inactive) | > 100 µM (inactive) | > 100 µM (inactive) | > 100 µM (inactive) | > 100 µM (inactive) | > 100 µM (inactive) | > 100 µM (inactive) | > 100 µM (inactive) | – | – |
| CN1C(=O)N(C)C(N2CCCC2)c2c1nc1ccccn1c2=O (configuration not stated) | 97.9 µM (inactive) | 37.6 µM (inactive) | 60.4 µM (inactive) | 56.6 | 36.8 µM (inactive) | 53.1 µM (inactive) | > 100 µM (inactive) | > 100 µM (inactive) | 58.1 µM (inactive) | > 100 µM (inactive) | – | 99.5 µM (inactive) | 70.5 µM (inactive) | > 100 µM (inactive) | – | > 100 µM (inactive) | – | – |
| COC(=O)C1CCCN1C(=O)C(Cc1cn(S(=O)(=O)c2ccc(C)cc2)cn1)NC(=O)OC(C)(C)C (configuration not stated) | > 100 µM (inactive) | > 100 µM (inactive) | > 100 µM (inactive) | > 100 | > 100 µM (inactive) | > 100 µM (inactive) | > 100 µM (inactive) | > 100 µM (inactive) | – | – | > 100 µM (inactive) | > 100 µM (inactive) | > 100 µM (inactive) | > 100 µM (inactive) | – | > 10 µM (inactive) | > 100 µM (inactive) | > 100 µM (inactive) |
| FC(F)(F)C12C34C=CC5(CCC6(C=CC1(CC3)O6)C52C(F)(F)F)O4 (configuration not stated) | > 100 µM (inactive) | > 100 µM (inactive) | > 100 µM (inactive) | – | > 100 µM (inactive) | > 100 µM (inactive) | > 100 µM (inactive) | > 100 µM (inactive) | > 100 µM (inactive) | > 100 µM (inactive) | – | > 100 µM (inactive) | > 100 µM (inactive) | – | > 100 µM (inactive) | > 100 µM (inactive) | – | – |
| COc1cc2ccc3c4cc(OC)c(OCc5ccccc5)cc4cnc3c2cc1OC | > 100 µM (inactive) | > 100 µM (inactive) | – | – | – | > 100 µM (inactive) | > 100 µM (inactive) | – | > 100 µM (inactive) | > 100 µM (inactive) | > 100 µM (inactive) | – | > 100 µM (inactive) | 70 µM (inactive) | > 100 µM (inactive) | > 100 µM (inactive) | – | – |
| CCc1cccc(CC)c1NC(=O)C1=CNC(C)=C(C(=O)Nc2c(CC)cccc2CC)C1c1ccc(O)c(OC)c1 (configuration not stated) | 34.4 µM (inactive) | 21.5 µM (inactive) | – | – | 26.5 µM (inactive) | 31.4 µM (inactive) | 24.6 µM (inactive) | 30.1 µM (inactive) | 23.9 µM (inactive) | 40.6 µM (inactive) | 32.3 µM (inactive) | 54.1 µM (inactive) | 12.4 µM (inactive) | 29.1 µM (inactive) | 39.8 µM (inactive) | 56.2 µM (inactive) | – | – |
| Cn1c(N)[n+](C(=O)OCc2ccccc2)c(=O)c2c1ncn2C(=O)OCc1ccccc1 | 30.1 µM (inactive) | > 100 µM (inactive) | 52.2 µM (inactive) | > 100 | > 100 µM (inactive) | > 100 µM (inactive) | > 100 µM (inactive) | 18 µM (inactive) | 65.2 µM (inactive) | 28.1 µM (inactive) | > 100 µM (inactive) | 30.8 µM (inactive) | 9.82 µM (inactive) | 14.4 µM (inactive) | 53 µM (inactive) | > 100 µM (inactive) | – | – |
| Cn1c(O)c(C(=O)NC2CCCCC2)c(=O)n(C)c1=S | 6.15 µM (inactive) | 5.83 µM (inactive) | – | 5.02 | – | – | 9.66 µM (inactive) | 8.57 µM (inactive) | 6.75 µM (inactive) | 4.56 µM (inactive) | 5.05 µM (inactive) | 7.11 µM (inactive) | 4.51 µM (inactive) | 3.24 µM (inactive) | 5.89 µM (inactive) | 1.94 µM (inactive) | – | – |
